The test system of experiment [1] is Serratia marcescens. Description: Antibacterial activity against Serratia marcescens assessed as zone of inhibition after 24 to 48 hrs by well diffusion method. It is filed as functional.
In experiment [2] the test system is Pseudomonas aeruginosa. Description: Antibacterial activity against Pseudomonas aeruginosa assessed as zone of inhibition after 24 to 48 hrs by well diffusion method. It is filed as functional. Background: Agar diffusion results depend on both activity and mobility in agar.
For another experiment, the system named is Staphylococcus aureus. Description: Antibacterial activity against Staphylococcus aureus assessed as zone of inhibition after 24 to 48 hrs by well diffusion method. The experiment is classed as functional.
Experiment [3] deals with Klebsiella pneumoniae. The experiment can be described thus: Antibacterial activity against Klebsiella pneumoniae assessed as zone of inhibition after 24 to 48 hrs by well diffusion method. The experiment is classed as functional.
In a further experiment the test system is Streptococcus pyogenes. The experiment can be described thus: Antibacterial activity against Streptococcus pyogenes assessed as zone of inhibition after 24 to 48 hrs by well diffusion method. The experiment is classed as functional.
For experiment [4], the system named is Escherichia coli. Description: Antibacterial activity against Escherichia coli assessed as zone of inhibition after 24 to 48 hrs by well diffusion method. It is filed as functional.
Experiment [5] relates to Staphylococcus epidermidis. The experiment can be described thus: Antibacterial activity against Staphylococcus epidermidis assessed as zone of inhibition after 24 to 48 hrs by well diffusion method. The experiment is classed as functional.
The subject of experiment [6] is Leishmania major. Description: Antileishmanial activity against Leishmania major promastigotes at 100 uM after 72 hrs by MTT assay relative to control. The experiment is classed as functional. (Formazan colour is commonly taken as a measure of viable cells.)
In experiment [7] the test system is Leishmania major. Description: Antileishmanial activity against Leishmania major promastigotes at 0.1 uM after 72 hrs by MTT assay relative to control. The experiment is classed as functional.
Experiment [8] has as its system Leishmania major. The experiment can be described thus: Antileishmanial activity against Leishmania major promastigotes at 10 uM after 72 hrs by MTT assay relative to control. It is filed as functional.
Experiment [9] relates to Leishmania major. The experiment can be described thus: Antileishmanial activity against Leishmania major promastigotes at 1 uM after 72 hrs by MTT assay relative to control. The experiment is classed as functional.
Experiment [10] deals with Klebsiella pneumoniae. The experiment can be described thus: Antibacterial activity against Klebsiella pneumoniae assessed as zone of inhibition by measuring activity index after 24 to 48 hrs by well diffusion method relative to tetracycline. It is filed as functional, organism-based.
Experiment [11] concerns Serratia marcescens. Description: Antibacterial activity against Serratia marcescens assessed as zone of inhibition by measuring activity index after 24 to 48 hrs by well diffusion method relative to penicillin G. It is filed as functional.
The subject of experiment [12] is Staphylococcus epidermidis. The experiment can be described thus: Antibacterial activity against Staphylococcus epidermidis assessed as zone of inhibition by measuring activity index after 24 to 48 hrs by well diffusion method relative to tetracycline. The experiment is classed as functional, organism-based.
In experiment [13] the test system is NCI-H157. The experiment can be described thus: Cytotoxicity against human NCI-H157 cells at 10 uM after 48 hrs by sulforhodamine B assay. It is filed as functional.
Experiment [14] relates to Pseudomonas aeruginosa. The experiment can be described thus: Antibacterial activity against Pseudomonas aeruginosa assessed as zone of inhibition by measuring activity index after 24 to 48 hrs by well diffusion method relative to penicillin G. It is filed as functional, organism-based.
In experiment [15] the test system is NCI-H157. The experiment can be described thus: Cytotoxicity against human NCI-H157 cells after 48 hrs by sulforhodamine B assay. It is filed as functional, cell-based. In general terms: In SRB staining, fixed cells bind dye roughly in proportion to their protein.
Experiment [16] deals with Staphylococcus epidermidis. The experiment can be described thus: Antibacterial activity against Staphylococcus epidermidis assessed as zone of inhibition by measuring activity index after 24 to 48 hrs by well diffusion method relative to amoxicillin. It is filed as functional, organism-based.
The test system of experiment [17] is Pseudomonas aeruginosa. Description: Antibacterial activity against Pseudomonas aeruginosa assessed as zone of inhibition by measuring activity index after 24 to 48 hrs by well diffusion method relative to tetracycline. The experiment is classed as functional, organism-based.
The subject of experiment [18] is NCI-H157. The experiment can be described thus: Cytotoxicity against human NCI-H157 cells at 1 uM after 48 hrs by sulforhodamine B assay. It is filed as functional.
Experiment [19] deals with Klebsiella pneumoniae. Description: Antibacterial activity against Klebsiella pneumoniae assessed as zone of inhibition by measuring activity index after 24 to 48 hrs by well diffusion method relative to amoxicillin. It is filed as functional, organism-based.
Experiment [20] has as its system Serratia marcescens. Description: Antibacterial activity against Serratia marcescens assessed as zone of inhibition by measuring activity index after 24 to 48 hrs by well diffusion method relative to ampicillin. It is filed as functional.
Experiment [21] deals with Pseudomonas aeruginosa. The experiment can be described thus: Antibacterial activity against Pseudomonas aeruginosa assessed as zone of inhibition by measuring activity index after 24 to 48 hrs by well diffusion method relative to amoxicillin. It is filed as functional, organism-based.
Experiment [22] relates to Serratia marcescens. Description: Antibacterial activity against Serratia marcescens assessed as zone of inhibition by measuring activity index after 24 to 48 hrs by well diffusion method relative to amoxicillin. It is filed as functional.
For experiment [23], the system named is NCI-H157. The experiment can be described thus: Cytotoxicity against human NCI-H157 cells at 100 uM after 48 hrs by sulforhodamine B assay. It is filed as functional.
The test system of experiment [24] is Escherichia coli. The experiment can be described thus: Antibacterial activity against Escherichia coli assessed as zone of inhibition by measuring activity index after 24 to 48 hrs by well diffusion method relative to tetracycline. The experiment is classed as functional.
Experiment [25] deals with NCI-H157. Description: Cytotoxicity against human NCI-H157 cells at 0.1 uM after 48 hrs by sulforhodamine B assay. It is filed as functional.
Experiment [26] deals with Klebsiella pneumoniae. The experiment can be described thus: Antibacterial activity against Klebsiella pneumoniae assessed as zone of inhibition by measuring activity index after 24 to 48 hrs by well diffusion method relative to ampicillin. It is filed as functional, organism-based.
For experiment [27], the system named is Pseudomonas aeruginosa. Description: Antibacterial activity against Pseudomonas aeruginosa assessed as zone of inhibition by measuring activity index after 24 to 48 hrs by well diffusion method relative to ampicillin. The experiment is classed as functional, organism-based.

Calls of active or inactive are those of the source. No cut-off for these calls is given here.

Consider `CC1(C)S[C@@H]2[C@H](NC(=O)[C@H](N)c3ccccc3)C(=O)N2[C@H]1C(=O)O` [AMPICILLIN], for which the “inhibition zone (IZ)” value with Serratia marcescens [1] is 8 mm; in the experiment with Pseudomonas aeruginosa [2] it was 0 mm; in the experiment with Staphylococcus aureus, 0 mm; with Klebsiella pneumoniae [3] it was 6 mm; in the experiment on Streptococcus pyogenes it was 0 mm; in the experiment with Escherichia coli [4] it was 0 mm. Moreover, in experiment [5], the “inhibition zone (IZ)” value was 0 mm.
With `CC1(C)S[C@@H]2[C@H](NC(=O)[C@H](N)c3ccc(O)cc3)C(=O)N2[C@H]1C(=O)O` [AMOXICILLIN], the “inhibition zone (IZ)” value in the experiment on Serratia marcescens [1] turned out to be 6 mm; in the experiment on Pseudomonas aeruginosa [2], 6 mm; in the experiment with Staphylococcus aureus, 0 mm; with Klebsiella pneumoniae [3], 6 mm; in the experiment with Streptococcus pyogenes, 0 mm; with Escherichia coli [4], 0 mm. The “inhibition zone (IZ)” value in [5] stood at 2 mm.
Regarding `C[C@@H]1[C@H](O)[C@@H](C)/C=C/C=C/C=C/C=C/C=C/C=C/C=C/[C@H](O[C@@H]2O[C@H](C)[C@@H](O)[C@H](N)[C@@H]2O)C[C@@H]2O[C@](O)(C[C@@H](O)C[C@@H](O)[C@H](O)CC[C@@H](O)C[C@@H](O)CC(=O)O[C@H]1C)C[C@H](O)[C@H]2C(=O)O` [AMPHOTERICIN B], the Activity came out at 79.8% in the experiment on Leishmania major [6], 69.9% with Leishmania major [7], 76.3% in the experiment on Leishmania major [8] and 74.8% in the experiment on Leishmania major [9].
With “Dibenzylstannanediyl bis 2-(4-methoxy-2-nitrophenylcarbamoyl)benzoate”, the Activity index was found to be 1.07 in the experiment on Klebsiella pneumoniae [10]; 0.96 in the experiment on Serratia marcescens [11]; 1.1 in experiment [12]; 2.39 in the experiment with Pseudomonas aeruginosa [14]; 5.5 in experiment [16]; 2.39 in the experiment with Pseudomonas aeruginosa [17]. Also, the Activity index in the experiment on Klebsiella pneumoniae [19] turned out to be 2.5; in the experiment on Serratia marcescens [20], 0.96; in the experiment on Pseudomonas aeruginosa [21], 2.39; with Serratia marcescens [22] it was 1.28; with Escherichia coli [24] it was 4.5; in the experiment on Klebsiella pneumoniae [26], 2.5. In addition, the Activity in the experiment on NCI-H157 [13] is 71.3%; in the experiment with Leishmania major [6], 72.4%; in the experiment with NCI-H157 [15] it was “Dose-dependent effect”; in the experiment on Leishmania major [7], 60.9%; in the experiment on NCI-H157 [18], 67.4%; in the experiment on Leishmania major [8], 66.3%. The results for the Activity in the experiment with NCI-H157 [23], in the experiment with NCI-H157 [25] and in the experiment on Leishmania major [9] were 74.5%, 62.7% and 62.5%, respectively. The inhibition zone (IZ) in the experiment with Serratia marcescens [1] is 7.66 mm; with Pseudomonas aeruginosa [2] it was 14.3 mm; in the experiment on Staphylococcus aureus, 10.7 mm; with Klebsiella pneumoniae [3], 15 mm; with Streptococcus pyogenes it was 10.7 mm; with Escherichia coli [4], 9 mm. Moreover, the inhibition zone (IZ) in [5] is 11 mm.
With “Dibutylstannanediyl bis 2-(4-methoxy-2-nitrophenylcarbamoyl)benzoate”, the Activity index was 1.88 with Klebsiella pneumoniae [10]; 2.29 in the experiment on Serratia marcescens [11]; 1.5 in experiment [12]; 7.5 in experiment [16]; 4.34 with Klebsiella pneumoniae [19]; 2.29 in the experiment with Serratia marcescens [20]. For the same molecule, the Activity index in the experiment on Serratia marcescens [22] is 3.05; in the experiment with Escherichia coli [24], 9.67; in the experiment on Klebsiella pneumoniae [26] it was 4.34. For the same molecule, in the experiment on Pseudomonas aeruginosa [27], the Activity_index result is “inactive”. Moreover, the Activity is 52.6% in the experiment on NCI-H157 [13]; 54.2% with Leishmania major [6]; “Dose-dependent effect” with NCI-H157 [15]; 47.6% in the experiment with Leishmania major [7]; 47.4% with NCI-H157 [18]; 50.6% with Leishmania major [8]. In addition, the Activity in the experiment with NCI-H157 [23] was determined as 55.5%; in the experiment with NCI-H157 [25] it was 43.9%; in the experiment on Leishmania major [9], 49.6%. Also, the inhibition zone (IZ) was determined as 18.3 mm in the experiment with Serratia marcescens [1]; 24 mm with Staphylococcus aureus; 26 mm in the experiment with Klebsiella pneumoniae [3]; 6 mm with Streptococcus pyogenes; 19.3 mm in the experiment on Escherichia coli [4]; 15 mm in experiment [5]. For the same molecule, the “inhibition zone (IZ)” value in the experiment with Pseudomonas aeruginosa [2] was “inactive”.
Consider `CC1(C)S[C@@H]2[C@H](NC(=O)Cc3ccccc3)C(=O)N2[C@H]1C(=O)O` [PENICILLIN G], for which the “inhibition zone (IZ)” value in the experiment on Serratia marcescens [1] is given as 8 mm; with Pseudomonas aeruginosa [2], 6 mm; with Staphylococcus aureus, 0 mm; in the experiment on Klebsiella pneumoniae [3] it was 0 mm; in the experiment on Streptococcus pyogenes it was 0 mm; with Escherichia coli [4], 0 mm. Moreover, in experiment [5], the “inhibition zone (IZ)” value is 0 mm.
As to `CN(C)[C@@H]1C(O)=C(C(N)=O)C(=O)[C@@]2(O)C(O)=C3C(=O)c4c(O)cccc4[C@@](C)(O)[C@H]3C[C@@H]12` [TETRACYCLINE], the “inhibition zone (IZ)” value stood at 0 mm in the experiment with Serratia marcescens [1]; 6 mm in the experiment with Pseudomonas aeruginosa [2]; 0 mm with Staphylococcus aureus; 14 mm in the experiment with Klebsiella pneumoniae [3]; 0 mm in the experiment on Streptococcus pyogenes; 2 mm with Escherichia coli [4]. Also, the “inhibition zone (IZ)” value in [5] was 10 mm.
For the molecule “Triphenylstannyl 2-(4-methoxy-2-nitrophenylcarbamoyl)benzoate”, the Activity index with Klebsiella pneumoniae [10] was determined as 1.44; in the experiment on Serratia marcescens [11], 0.58; in experiment [12] it was 1.9; in the experiment with Pseudomonas aeruginosa [14] it was 3.78; in experiment [16], 9.5; with Pseudomonas aeruginosa [17] it was 3.78. In addition, the Activity index is 3.37 in the experiment on Klebsiella pneumoniae [19]; 0.58 in the experiment with Serratia marcescens [20]; 3.78 in the experiment with Pseudomonas aeruginosa [21]; 0.78 in the experiment on Serratia marcescens [22]; 5.5 with Escherichia coli [24]; 3.37 in the experiment with Klebsiella pneumoniae [26]. Also, the Activity was 58.4% in the experiment on NCI-H157 [13]; 64.3% in the experiment with Leishmania major [6]; “Dose-dependent effect” in the experiment with NCI-H157 [15]; 50.7% in the experiment with Leishmania major [7]; 55.7% in the experiment on NCI-H157 [18]; 59.4% in the experiment with Leishmania major [8]. Further, the Activity is 61.7% with NCI-H157 [23], 52.3% in the experiment on NCI-H157 [25] and 53.6% in the experiment on Leishmania major [9]. For the same molecule, the inhibition zone (IZ) in the experiment with Serratia marcescens [1] was 4.66 mm; in the experiment with Pseudomonas aeruginosa [2], 22.7 mm; in the experiment on Staphylococcus aureus, 4.66 mm; in the experiment with Klebsiella pneumoniae [3], 20.2 mm; in the experiment with Streptococcus pyogenes, 11.7 mm; in the experiment on Escherichia coli [4], 11 mm. The inhibition zone (IZ) in experiment [5] worked out at 19 mm.

Values taken from ChEMBL document CHEMBL4138175, “Newly designed organotin(IV) carboxylates with peptide linkage: Synthesis, structural elucidation, physicochemical characterizations and pharmacological investigations” (Eur J Med Chem, 2018).
